Experimental findings from patent US20210379543A1, “PROCESS FOR PRODUCING A NANO-TAN IIA MICROEMULSION SYSTEM” (Wakamono Corporation, priority 2021, published 2021) are described below.

The series in a line: Water solubility / water-dispersability, including FIG. 1 comparison. The class given is physicochemical. To be noted: dispersed in water, bottle A vs bottle B.

As for `Cc1coc2c1C(=O)C(=O)c1c-2ccc2c1CCCC2(C)C` [known 90% Tan IIA, Tanshinone IIA], the “Water-dispersability (FIG. 1)” value is “insoluble in water”.
